# Test results: US20170190671A1, “BIS(ARYL)CATECHOL DERIVATIVES AS HERBICIDES” (E I DU PONT DE NEMOURS AND COMPANY, priority 2014, published 2017)
# Tests used:
# Assay in all cases: Test F preemergence
# Format in all cases: in vivo
# Conditions in all cases: 21 days, scale 0 to 100
# [1] = tested on: Italian ryegrass (Lolium multiflorum)
# Source text: (§1) Seeds of plant species selected from bermudagrass (Cynodon dactylon), Surinam grass (Brachiaria decumbens), large (Lg) crabgrass (Digitaria sanguinalis), crabgrass, naked (naked crabgrass, Digitaria nuda), foxtail, green (green foxtail, Setaria viridis), johnsongrass (Sorghum halepense), kochia (Kochia scoparia), morningglory (pitted morningglory, Ipomoea lacunosa), nutsedge, purple (purple nutsedge, Cyperus rotundus), ragweed (common ragweed, Ambrosia elatior), mustard, black (black mustard, Brassica nigra), guineagrass (Panicum maximum), dallisgrass (Paspalum dilatatum), barnyardgrass (Echinochloa crus-galli), sandbur (southern sandbur, Cenchrus echinatus), sowthistle (common sowthistle, Sonchus oleraceous), Italian ryegrass (Lolium multiflorum), signalgrass (broadleaf signalgrass, Brachiaria platyphylla), dayflower (Virginia (VA) dayflower, Commelina virginica), bluegrass (annual bluegrass, Poa annua), quackgrass (Elytrigia repens), mallow (common mallow, Malva sylvestris), buckwheat, wild (wild buckwheat, Polygonum convolvulus), leafy spurge (Euphorbia esula), chickweed (common chickweed, Stellaria media), wild poinsettia (Euphorbia heterophylla), and pigweed (Amaranthus retroflexus) were planted into a blend of loam soil and sand and treated preemergence with test a chemical formulated in a non-phytotoxic solvent mixture which included a surfactant.
# (§2) Treated plants and controls were maintained in a greenhouse for 21 days, after which time all species were compared to controls and visually evaluated. Plant response ratings, summarized in Table F, are based on a scale of 0 to 100 where 0 is no effect and 100 is complete control. A dash (-) response means no test result.
# [2] = tested on: Surinam grass (Brachiaria decumbens)
# Source text: as §1, §2
# [3] = tested on: barnyardgrass (Echinochloa crus-galli)
# Source text: as §1, §2
# [4] = tested on: bermudagrass (Cynodon dactylon)
# Source text: as §1, §2
# [5] = tested on: bluegrass (annual bluegrass, Poa annua)
# Source text: as §1, §2
# [6] = tested on: buckwheat, wild (wild buckwheat, Polygonum convolvulus)
# Source text: as §1, §2
# [7] = tested on: chickweed (common chickweed, Stellaria media)
# Source text: as §1, §2
# [8] = tested on: crabgrass, naked (naked crabgrass, Digitaria nuda)
# Source text: as §1, §2
# [9] = tested on: dallisgrass (Paspalum dilatatum)
# Source text: as §1, §2
# [10] = tested on: dayflower (Virginia (VA) dayflower, Commelina virginica)
# Source text: as §1, §2
# [11] = tested on: foxtail, green (green foxtail, Setaria viridis)
# Source text: as §1, §2
# [12] = tested on: guineagrass (Panicum maximum)
# Source text: as §1, §2
# [13] = tested on: johnsongrass (Sorghum halepense)
# Source text: as §1, §2
# kochia (Kochia scoparia) = tested on: kochia (Kochia scoparia)
# Source text: as §1, §2
# [14] = tested on: large (Lg) crabgrass (Digitaria sanguinalis)
# Source text: as §1, §2
# [15] = tested on: leafy spurge (Euphorbia esula)
# Source text: as §1, §2
# [16] = tested on: mallow (common mallow, Malva sylvestris)
# Source text: as §1, §2
# [17] = tested on: morningglory (pitted morningglory, Ipomoea lacunosa)
# Source text: as §1, §2
# [18] = tested on: mustard, black (black mustard, Brassica nigra)
# Source text: as §1, §2
# [19] = tested on: nutsedge, purple (purple nutsedge, Cyperus rotundus)
# Source text: as §1, §2
# [20] = tested on: quackgrass (Elytrigia repens)
# Source text: as §1, §2
# [21] = tested on: ragweed (common ragweed, Ambrosia elatior)
# Source text: as §1, §2
# [22] = tested on: sandbur (southern sandbur, Cenchrus echinatus)
# Source text: as §1, §2
# [23] = tested on: signalgrass (broadleaf signalgrass, Brachiaria platyphylla)
# Source text: as §1, §2
# [24] = tested on: sowthistle (common sowthistle, Sonchus oleraceous)
# Source text: as §1, §2
# [25] = tested on: wild poinsettia (Euphorbia heterophylla)
# Source text: as §1, §2
smiles,measurement,setting,value
"N#Cc1cccc(Oc2ncc(Cl)cn2)c1Oc1ncc(Cl)cn1 [Compound 3, 2,3-bis[(5-chloro-2-pyrimidinyl)oxy]benzonitrile]","Plant response rating, Ryegrass, Italian",[1]; 62 g ai/ha,95
same,"Plant response rating, Ryegrass, Italian",[1]; 125 g ai/ha,100
same,"Plant response rating, Ryegrass, Italian",[1]; 250 g ai/ha,100
same,"Plant response rating, Surinam Grass",[2]; 62 g ai/ha,75
same,"Plant response rating, Surinam Grass",[2]; 125 g ai/ha,100
same,"Plant response rating, Surinam Grass",[2]; 250 g ai/ha,100
same,"Plant response rating, Barnyardgrass",[3]; 62 g ai/ha,98
same,"Plant response rating, Barnyardgrass",[3]; 125 g ai/ha,100
same,"Plant response rating, Barnyardgrass",[3]; 250 g ai/ha,100
same,"Plant response rating, Bermudagrass",[4]; 62 g ai/ha,100
same,"Plant response rating, Bermudagrass",[4]; 125 g ai/ha,100
same,"Plant response rating, Bermudagrass",[4]; 250 g ai/ha,100
same,"Plant response rating, Bluegrass",[5]; 62 g ai/ha,80
same,"Plant response rating, Bluegrass",[5]; 125 g ai/ha,100
same,"Plant response rating, Bluegrass",[5]; 250 g ai/ha,100
same,"Plant response rating, Buckwheat, Wild",[6]; 62 g ai/ha,100
same,"Plant response rating, Buckwheat, Wild",[6]; 125 g ai/ha,100
same,"Plant response rating, Buckwheat, Wild",[6]; 250 g ai/ha,100
same,"Plant response rating, Chickweed",[7]; 62 g ai/ha,100
same,"Plant response rating, Chickweed",[7]; 125 g ai/ha,100
same,"Plant response rating, Chickweed",[7]; 250 g ai/ha,100
same,"Plant response rating, Crabgrass, Naked",[8]; 62 g ai/ha,100
same,"Plant response rating, Crabgrass, Naked",[8]; 125 g ai/ha,100
same,"Plant response rating, Crabgrass, Naked",[8]; 250 g ai/ha,100
same,"Plant response rating, Dallisgrass",[9]; 62 g ai/ha,100
same,"Plant response rating, Dallisgrass",[9]; 125 g ai/ha,100
same,"Plant response rating, Dallisgrass",[9]; 250 g ai/ha,100
same,"Plant response rating, Dayflower, VA",[10]; 62 g ai/ha,98
same,"Plant response rating, Dayflower, VA",[10]; 125 g ai/ha,100
same,"Plant response rating, Dayflower, VA",[10]; 250 g ai/ha,100
same,"Plant response rating, Foxtail, Green",[11]; 62 g ai/ha,100
same,"Plant response rating, Foxtail, Green",[11]; 125 g ai/ha,100
same,"Plant response rating, Foxtail, Green",[11]; 250 g ai/ha,100
same,"Plant response rating, Guineagrass",[12]; 62 g ai/ha,100
same,"Plant response rating, Guineagrass",[12]; 125 g ai/ha,100
same,"Plant response rating, Guineagrass",[12]; 250 g ai/ha,100
same,"Plant response rating, Johnsongrass",[13]; 62 g ai/ha,75
same,"Plant response rating, Johnsongrass",[13]; 125 g ai/ha,100
same,"Plant response rating, Johnsongrass",[13]; 250 g ai/ha,100
same,"Plant response rating, Kochia",kochia (Kochia scoparia); 62 g ai/ha,100
same,"Plant response rating, Kochia",kochia (Kochia scoparia); 125 g ai/ha,100
same,"Plant response rating, Kochia",kochia (Kochia scoparia); 250 g ai/ha,100
same,"Plant response rating, Crabgrass, Large",[14]; 62 g ai/ha,100
same,"Plant response rating, Crabgrass, Large",[14]; 125 g ai/ha,100
same,"Plant response rating, Crabgrass, Large",[14]; 250 g ai/ha,100
same,"Plant response rating, Leafy Spurge",[15]; 62 g ai/ha,98
same,"Plant response rating, Leafy Spurge",[15]; 125 g ai/ha,100
same,"Plant response rating, Leafy Spurge",[15]; 250 g ai/ha,98
same,"Plant response rating, Mallow",[16]; 62 g ai/ha,100
same,"Plant response rating, Mallow",[16]; 125 g ai/ha,100
same,"Plant response rating, Mallow",[16]; 250 g ai/ha,100
same,"Plant response rating, Morningglory, Pitt",[17]; 62 g ai/ha,100
same,"Plant response rating, Morningglory, Pitt",[17]; 125 g ai/ha,100
same,"Plant response rating, Morningglory, Pitt",[17]; 250 g ai/ha,100
same,"Plant response rating, Mustard, Black",[18]; 62 g ai/ha,100
same,"Plant response rating, Mustard, Black",[18]; 125 g ai/ha,100
same,"Plant response rating, Mustard, Black",[18]; 250 g ai/ha,100
same,"Plant response rating, Nutsedge, Purple",[19]; 62 g ai/ha,40
same,"Plant response rating, Nutsedge, Purple",[19]; 125 g ai/ha,60
same,"Plant response rating, Nutsedge, Purple",[19]; 250 g ai/ha,85
same,"Plant response rating, Quackgrass",[20]; 62 g ai/ha,65
same,"Plant response rating, Quackgrass",[20]; 125 g ai/ha,90
same,"Plant response rating, Quackgrass",[20]; 250 g ai/ha,98
same,"Plant response rating, Ragweed",[21]; 62 g ai/ha,85
same,"Plant response rating, Ragweed",[21]; 125 g ai/ha,100
same,"Plant response rating, Ragweed",[21]; 250 g ai/ha,100
same,"Plant response rating, Sandbur",[22]; 62 g ai/ha,35
same,"Plant response rating, Sandbur",[22]; 125 g ai/ha,100
same,"Plant response rating, Sandbur",[22]; 250 g ai/ha,100
same,"Plant response rating, Signalgrass",[23]; 62 g ai/ha,100
same,"Plant response rating, Signalgrass",[23]; 125 g ai/ha,100
same,"Plant response rating, Signalgrass",[23]; 250 g ai/ha,100
same,"Plant response rating, Sowthistle",[24]; 62 g ai/ha,100
same,"Plant response rating, Sowthistle",[24]; 125 g ai/ha,100
same,"Plant response rating, Sowthistle",[24]; 250 g ai/ha,100
same,"Plant response rating, Poinsettia, Wild",[25]; 62 g ai/ha,95
same,"Plant response rating, Poinsettia, Wild",[25]; 125 g ai/ha,95
same,"Plant response rating, Poinsettia, Wild",[25]; 250 g ai/ha,100
